Measurements as given in patent US20110082204A1, “N-alkylcarbonyl-amino acid ester and N-alkylcarbonyl-amino lactone compounds and their use” (priority 2006, published 2011).

Experiments:
[1] = Log P of tested compounds; format: physicochemical
[2] = system: periorbital skin; test: Ointment applied to periorbital skin: coolness, eye irritancy, alerting (Study 3); format: in vivo, human; details: for irritation of skin / eye surfaces / skin coolness and refreshment: ointment on periorbital area; for skin coolness and refreshment: conditions similar to Study 3
Excerpt: The ointment was also applied to the periorbital skin (upper and lower eyelids and on skin adjacent to the lateral canthus) for tests of irritancy near the eyes, and the subject is asked if irritation is present or absent. The intensity of the eye sensation is not rated.
For tests of irritancy near the eyes in Study 3 and 4, the ointment was applied to the periorbital skin (upper and lower eyelids and on skin adjacent to the lateral canthus), and the subject asked if irritation is present or absent. The intensity of the eye sensation is not rated, but just noted as being present or absent
A 1% preparation of 2-isopropyl-5-methyl-cyclohexanecarbonyl D-alanine methyl ester in Aquaphor® ointment was applied bilaterally to the periorbital area of four individuals. […] This experiment was then repeated three days later in the evening with the same individuals whose occupations required daylong activities before a computer screen.

[3] = system: dorsal surface of the tongue; details: threshold amount producing cooling on tongue of human volunteers; values from Watson US 04178459; cited from earlier work
[4] = system: face; test: Study 2: towelette used to wipe the face in hot weather; format: in vivo, human; details: for duration of pleasant cooling sensations: 10% propylene glycol/90% water
Protocol: 2-Isopropyl-5-methyl-cyclohexanecarbonyl D-alanine methyl ester was dissolved in warm 10% propylene-glycoV90% distilled water solution to give a concentration of either 0.1 or 0.5% wt/vol (1 or 5 mg/mL). Six to seven milliliters of these solutions were then applied with a pipette onto a paper napkin (Luncheon Napkins, Kirkland Signature brand from Costco, Inc.) The napkin was 1-ply with a 30.4×29.5 cm dimension. Each napkin was then hermetically sealed in a plastic envelope (Foodsaver by Tilia). On two separate occasions involving golfing trips to Los Angeles, Calif., USA, where air temperatures exceeded […] (90° F.), these towelettes were used to wipe the face. Pleasant cooling sensations were obtained that lasted for about 10 minute for the 0.1% concentration towelette and about 60 minutes for the 0.5% towelette.

[5] = system: eyelids/ocular surface; test: Cooling after wiping closed eyelids with a towelette; format: in vivo, human; details: eye wipes, 1 mg/ml in 5%-95% v/v ethanol-distilled water
Protocol: A second method of testing was to take a towelette saturated with a test solution of the cooling agent and to wipe the towelette over the dosed eyelids. The presence or absence of cooling (or irritanty, if applicable) sensations was then recorded at 10 minute intervals until the cessation of coolness in two successive intervals.
(§1) For testing of cooling compounds delivered to the eyelids with a towelette, the following procedures were used in the experiments of Table 3 and in Study 5 and 6. Three ml of liquid suspension or solution in distilled water was added to a 0.4 g cotton rectangle (50 mm×60 mm) (CS-being, Daisan Cotton, Japan) and individually sealed with a vaccuum apparatus (Foodsaver®, Jarden Corp.). Samples were stored in the freezer or refrigerator and thawed to room temperature before use. Wiping with the cotton pad delivers 40 to 45 μl of liquid composition to the eyelids ([…] to 22 μl per eye). So, if the concentration of the test substance was 1 mg/ml, the dose delivered to both eyes is a total of ˜40 to […], or ˜20 μg per eye. This method allows a reliable delivery of test substances because the dissolved or suspended particles in solution are evenly dispersed on the cotton pad in an excess volume of liquid. The presence or absence of cooling sensations was noted as being present or absent at 5 to 10 min intervals until no coolness was noticeable in two successive test intervals. Only the duration of cooling on the ocular surface was recorded, without an attempt to quantify the intensity of the sensation.

[6] = system: sleepiness and fatigue; test: Study 4: eye wipes against sleepiness and fatigue; format: in vivo, human; details: for onset and intensity of awakening effect: eye wipes, compared with the other analogs
Protocol: as §1
Three high-powered business executives who regularly spent long hours at the negotiating tables or at meetings felt “burnt out” by their professional activities and frequently felt tired and sleepy-eyed in the social arena. They volunteered to try eye wipes containing 1.0 mg/ml of (R)-2-[((1R,2S,5R)-2-isopropyl-5-methyl-cyclohexanecarbonyl)-amino]-propionic acid isopropyl ester (D-Ala-OiPr, No. 1, in table 1) to see if the eye wipes will refresh and awaken their interest during meetings. […] They became alert and vigilant and more pro-active in their social milieu.

[7] = system: philtrum skin; test: Cooling sensation after ointment applied to philtrum skin; format: in vivo, human; details: for Duration of cooling, Philtrum Skin: 5 mg/ml in Aquaphor ointment on philtrum skin; for duration of cooling (FIG. 1): 40 to 70 mg of 1% wt/vol (10 mg/ml) ointment on skin above the upper lips; for duration of action / onset on philtrum skin: Study 1
Excerpt: A reliable place for topical application is the skin above the upper lip (above the vermilion border of the lips), on the philtrum, lateral to the philtrum until the nasolabial folds, and on the lower nostrils (subnasale). This part of the face is known to be densely innervated with cold receptors, second only to the surfaces of the eyeball and anogenitalia.
The intensity of the subjective skin sensation is rated as 0, 1, 2 or 3 with: 0 as no change; 1 as slight coolness, cold, or tingling; 2 as clear-cut signal of coolness, cold, or tingling; and 3 as robust cooling or cold. The intervals for recording sensations are 5 to 10 minutes, until two successive zeroes are obtained. The results (shown in FIG. 1) are averaged values of 4 to 6 separate trials in the same individual. The data are plotted using SigmaPlot® (Systat Software, Point Richmond Calif.) and a smoothing function with a negative exponential was used for analysis and statistical fit of the results. Confirmatory trials of cooling action of the long-acting NACE compounds were obtained in 2 to 4 individuals but not quantified for some because of the large number of chemicals that were evaluated
(§2) The onset of drug action is taken as the time to reach 2 units of coolness intensity, and offset of drug action is the time when coolness intensity drops below 2, after previously surpassing 2 units. The duration of cooling action is defined as the offset time minus the onset time. […] The quality of the sensation is noted, for example, as pure refreshing coolness, or if the sensation is accompanied by irritation (stinging or burning). The quality of the sensation is not rated for intensity.
For bioassay on the skin, approximately 30 mg was stirred and dissolved in 3 g of warm liquid Aquaphor® ointment to a yield 5 to 10 mg/ml (0.5% to 1.0 wt/vol) ointment. After cooling, 40 to 70 mg of the solid ointment was placed on the tip of a plastic stick and applied to the skin above the upper lip, on the philtrum, and lateral to the philtrum, up to the nasolabial folds, of test subjects and the onset and duration of cooling sensations noted.
The intensity of the subjective skin sensation was rated as 0, 1, 2 or 3 with: 0 as no change; 1 as slight coolness, cold, or tingling; 2 as clear signal of coolness, cold, or tingling; and 3 as robust cooling or cold. The intervals for recording sensations were 5 to 10 minutes, until two successive zeroes were obtained. The results (shown in FIG. 1) are averaged values of 4 to 6 separate trials in the same individual. The data are plotted using SigmaPlot® (Systat Software, Point Richmond, Calif., USA) and a smoothing function with a negative exponential was used for analysis and statistical fit of the results.
as §2, with “was” for “is”, “was also noted: such” for “is noted, for example,”
For the results in FIG. 1, the test compounds were singly applied to the skin above the upper lips at a 40 to 70 mg dose of a 1% wt/vol (10 mg/ml) ointment. Subsequently, for the results shown in Table 3, the test dose on the philtrum was reduced to a 0.5% wt/vol (5 mg/ml) ointment. The reason for choosing a lower dose was to increase the number of trials per individual and to have a reduced chance of substances accumulating in the skin.

[8] = 1% in Aquaphor ointment, periorbital area, four individuals

| Log P [1] | logP [1] | Structure (SMILES) | irritation of skin / eye surfaces [2] | Threshold tongue [3] [µg] | Duration of cooling, Eyelids/Ocular Surface [5] [min] | Duration of cooling, Philtrum Skin [7] [min] | duration of cooling (FIG. 1) [7] [h] | further results |
| --- | --- | --- | --- | --- | --- | --- | --- | --- |
| 4.5 |  | CC(C)[C@@H]1CC[C@@H](C)C[C@H]1C(=O)NC(C)(C)C [WS-14] | produced significant skin and eye irritation | 0.4 |  |  |  | skin coolness and refreshment [2]: did not enhance skin coolness or provide satisfactory refreshment |
|  | 2.8 | COC(=O)[C@@H](C)NC(=O)[C@@H]1C[C@H](C)CC[C@H]1C(C)C [D-Ala Me Ester, (R)-2-[((1R,2S,5R)-2-isopropyl-5-methyl-cyclohexanecarbonyl)-amino]-propionic acid methyl ester] | No irritation of the eye surfaces was noted |  | 120 | 77 | 1.9 | duration of pleasant cooling sensations ([4]; 0.1% wt/vol (1 mg/mL) towelette): about 10 minute; eye irritation ([4]; 0.1 or 0.5% towelette): No eye irritation was observed; duration of pleasant cooling sensations ([4]; 0.5% wt/vol (5 mg/mL) towelette): about 60 minutes; onset and intensity of awakening effect [6]: faster onset and more intense awakening effect; Onset of coolness on the skin [2, 8]: 1 min; duration of alerting effect [2, 8]: about one; duration of coolness on the skin (average) [2, 8]: 30 min |
|  | 3.7 | CC(C)OC(=O)[C@@H](C)NC(=O)[C@@H]1C[C@H](C)CC[C@H]1C(C)C [D-Ala iPr Ester, (R)-2-[((1R,2S,5R)-2-isopropyl-5-methyl-cyclohexanecarbonyl)-amino]-propionic acid isopropyl ester] |  |  | 360 | 34 |  | effect on sleepiness and fatigue ([6]; eye wipes 1.0 mg/ml, three executives): the sense of sleepiness and fatigue was reduced for the next several hours |
| 3.4 |  | CCCOC(=O)CNC(=O)[C@@H]1C[C@H](C)CC[C@H]1C(C)C [Gly nPr Ester] |  | 0.3 | 54 | 42 |  |  |
|  | 3.1 | CCOC(=O)[C@@H](C)NC(=O)[C@@H]1C[C@H](C)CC[C@H]1C(C)C [D-Ala Et Ester, (R)-2-[((1R,2S,5R)-2-isopropyl-5-methyl-cyclohexanecarbonyl)-amino]-propionic acid ethyl ester] |  |  | 180 | 103 | 2.4 | onset and intensity of awakening effect [6]: faster onset and more intense awakening effect |
| 3.7 |  | CCNC(=O)C1CC(C)CCC1C(C)C (centres unmarked) [WS-3, reference compound] | produced significant skin and eye irritation | 0.2 |  |  | 0.3 | duration of action / onset on philtrum skin [7]: short duration of action (less than 1 hour) on the philtrum skin or slow onset (more than 5 minutes); skin coolness and refreshment [2]: did not enhance skin coolness or provide satisfactory refreshment |
| 2.9 |  | CCOC(=O)CNC(=O)[C@@H]1C[C@H](C)CC[C@H]1C(C)C [Gly Et Ester (WS-5), reference compound] |  | 0.2 | 15 | 24 | 0.5 | duration of action / onset on philtrum skin [7]: short duration of action (less than 1 hour) on the philtrum skin or slow onset (more than 5 minutes) |
